Assay results taken from patent US20140309192A1, “MODULATORS OF THE G PROTEIN-COUPLED MAS RECEPTOR AND THE TREATMENT OF DISORDERS RELATED THERETO” (ARENA PHARMACEUTICALS, INC., priority 2011, published 2014).
Read-outs that look alike come from different tables or passages of the source.

Assays:
[1] = biological target: T1, human Mas receptor (Homo sapiens, UniProt P04201); test: Ca2+ measurements by FLIPR assay, HEK293 cells stably expressing human Mas receptors; format: cell-based; settings: HEK293 cells stably expressing the human Mas receptor
T1 construct: expressed in transfected cells; host or cells: HEK293 (ATCC CRL-1573)
T1 sequence (P04201 1-325): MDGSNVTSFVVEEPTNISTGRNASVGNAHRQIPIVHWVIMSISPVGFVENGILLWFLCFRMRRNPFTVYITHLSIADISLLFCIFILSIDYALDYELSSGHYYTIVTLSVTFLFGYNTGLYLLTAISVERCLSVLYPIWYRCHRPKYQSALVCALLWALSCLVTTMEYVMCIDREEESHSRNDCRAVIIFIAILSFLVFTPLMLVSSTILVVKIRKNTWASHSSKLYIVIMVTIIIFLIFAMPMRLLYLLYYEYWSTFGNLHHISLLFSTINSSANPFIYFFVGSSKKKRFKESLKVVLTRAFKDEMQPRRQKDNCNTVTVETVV
Procedure: HEK293 cells stably expressing human Mas receptors were monitored for changes in intracellular Ca^2+ using a FLIPR-384 (Molecular Devices, Sunnyvale, Calif.). Cells were seeded into black-walled clear-base 384-well plates at a density of 2×10^4 cells per well and incubated with Hank's Balanced Salt Solution (HBSS) containing 20 mM HEPES pH 7.4, 2 μM Calcium 3 dye (Molecular Devices Corporation, Sunnyvale, Calif.) and 2.5 mM probenecid at 37° C. for 60 min. Cells were washed with HBSS containing 20 mM HEPES, pH 7.4 and 2.5 mM probenecid and the plates were then placed into the FLIPR instrument to monitor cell fluorescence before and after the addition of the agonists at different concentrations.

[2] = biological target: T1, human Mas receptor; test: HTRF IP1 assay, HEK293 cells expressing human Mas receptor; format: cell-based
[3] = biological target: T2, rat Mas receptor (Rattus norvegicus, UniProt P12526); test: HTRF IP1 assay, HEK293 cells expressing rat Mas receptor; format: cell-based
T2 construct: expressed in transfected cells; host or cells: HEK293 (ATCC CRL-1573)
T2 sequence (P12526 1-324): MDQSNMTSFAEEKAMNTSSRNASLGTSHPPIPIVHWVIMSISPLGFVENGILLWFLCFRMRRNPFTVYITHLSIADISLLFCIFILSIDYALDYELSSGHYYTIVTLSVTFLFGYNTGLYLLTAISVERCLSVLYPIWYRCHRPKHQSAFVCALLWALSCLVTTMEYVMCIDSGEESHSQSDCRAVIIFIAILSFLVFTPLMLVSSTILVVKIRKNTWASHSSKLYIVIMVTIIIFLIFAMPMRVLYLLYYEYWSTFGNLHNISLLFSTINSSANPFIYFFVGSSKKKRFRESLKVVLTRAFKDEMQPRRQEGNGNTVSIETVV

[4] = system: Male Sprague-Dawley rats; test: Left kidney artery ischemia reperfusion injury model; format: in vivo, rat
Procedure: Rats were anesthetized with pentobarbital (70 mg/kg). Normal body temperature was maintained by placing the animals on heating pads until recovery from anesthesia. Following a midline abdominal incision, the left renal pedicle was localized and the renal artery and vein were dissected. An atraumatic microvascular clamp was placed, and the left renal artery was occluded for 45 minutes. After inspection for signs of ischemia, the wound was covered with PBS soaked cotton. After release of the clamp, restoration of blood-flow was inspected visually and the wound was closed with surgical staples and the animal was allowed to recover. 24 hours following the end of ischemia blood was collected and markers of kidney function, creatinine and blood urea nitrogen (BUN) were measured.
15 minutes prior to renal artery occlusion either vehicle (20% hydroxypropyl-β-cyclodextrin) or a loading dose of 6.26 mg/kg Mas inverse agonist (Compound 170) was administered i.v. followed by a i.v. maintenance dose of 1.64 mg/kg/hr lasting for 2 hours following removal of the renal artery clamp. A renoprotective positive control peptide, Atrial natriuretic peptide (ANP, 0.2 μg/kg/min), was administered by continuous i.v. infusion starting 15 minutes prior to renal artery occlusion and lasting for 2 hours following removal of the renal artery clamp, see FIG. 43 for protocol.

[5] = 6.26 mg/kg loading + 1.64 mg/kg/hr i.v., 45 minutes occlusion, blood 24 hours after ischemia

COc1cc([N+](=O)[O-])ccc1S(=O)(=O)N1CC(CN2CCN(c3ccccn3)CC2)C(c2cccc(F)c2)C1 (stereo not shown) [AR234960]
intracellular Ca2+ [1]: significant increase | IC50 ([2]; IP assay, HEK293 cells stably expressing human Mas, 4 h, means ± SEM, read-out: Human IC50): 0.351 ± 0.055 µM | ligand activity in IP assay, human Mas ([2]; Table C, line under Human IC50): (agonist) | IC50 ([3]; IP assay, HEK293 cells stably expressing rat Mas, 4 h, means ± SEM, read-out: Rat IC50): 0.172 ± 0.009 µM | ligand activity in IP assay, rat Mas ([3]; Table C, line under Rat IC50): (agonist)

NC(=O)[C@H](CO)NCc1ccc(C(=O)Nc2ccc(Cl)cc2N2CCN(CCC(F)(F)F)CC2)c(F)c1F [Compound 170, (S)-4-((1-Amino-3-hydroxy-1-oxopropan-2-ylamino)methyl)-N-(4-chloro-2-(4-(3,3,3-trifluoropropyl)piperazin-1-yl)phenyl)-2,3-difluorobenzamide]
kidney function as measured by blood creatinine [4, 5]: improves kidney function | kidney function as measured by blood urea nitrogen (BUN) [4, 5]: improves kidney function | degree of renal protection ([4]; compared with ANP 0.2 μg/kg/min): at the same activity compared to ANP | IC50 ([2]; HTRF IP1 assay, human Mas receptor (Table B.2), read-out: IC50): 0.0156 µM | IC50 ([3]; HTRF IP1 assay, rat Mas receptor (Table B.1), read-out: IC50): 0.0214 µM
